In US20080009418A1, “Selective Inhibitors” (Alchemia LTD., priority 2004, published 2008):

Experiments:
Human opioid (ORL1) = biological target: T1, Human opioid (ORL1) (Homo sapiens, UniProt P41146); test: Radioligand binding, human opioid ORL1 membranes, FlashPlate, [125I]-Nociceptin; conditions: compound at 10 μM; for A10: inhibition of radioligand binding: FlashPlate
T1 construct: purchased Perkin Elmer Biosignal
Summary of the method: (§1)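 Cloned human receptor membranes were coated onto FlashPlate wells and incubated with radioligand and compound (added from a 0.5 mM DMSO daughter plate) for 1 hour at room temperature in the dark. Scintillation counting gave percent inhibition, with DMSO defining total and reference ligand defining non-specific binding.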

Human Melanocortin (MC3) = biological target: T2, Human Melanocortin (MC3) (Homo sapiens, UniProt P41968); test: Radioligand binding, human melanocortin MC3 membranes, FlashPlate, [125I]-NDP-αMSH; conditions: compound at 10 μM; for A3: inhibition of radioligand binding: FlashPlate
T2 construct: purchased Perkin Elmer Biosignal
T2 sequence (P41968 whole entry): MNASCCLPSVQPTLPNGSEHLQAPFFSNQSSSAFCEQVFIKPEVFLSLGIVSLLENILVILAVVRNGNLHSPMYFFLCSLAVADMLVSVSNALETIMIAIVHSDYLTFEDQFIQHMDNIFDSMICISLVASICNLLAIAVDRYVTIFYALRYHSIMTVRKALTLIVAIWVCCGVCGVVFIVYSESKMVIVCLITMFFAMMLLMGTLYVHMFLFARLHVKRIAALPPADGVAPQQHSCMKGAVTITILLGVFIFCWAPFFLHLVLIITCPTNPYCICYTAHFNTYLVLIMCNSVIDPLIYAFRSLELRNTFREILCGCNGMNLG
Summary of the method: as §1

Human Melanocortin (MC4) = biological target: T3, Human Melanocortin (MC4) (Homo sapiens, UniProt P32245); test: Radioligand binding, human melanocortin MC4 membranes, FlashPlate, [125I]-NDP-αMSH; conditions: compound at 10 μM; for A4: inhibition of radioligand binding: FlashPlate
T3 construct: purchased Perkin Elmer Biosignal
T3 sequence (P32245 whole entry): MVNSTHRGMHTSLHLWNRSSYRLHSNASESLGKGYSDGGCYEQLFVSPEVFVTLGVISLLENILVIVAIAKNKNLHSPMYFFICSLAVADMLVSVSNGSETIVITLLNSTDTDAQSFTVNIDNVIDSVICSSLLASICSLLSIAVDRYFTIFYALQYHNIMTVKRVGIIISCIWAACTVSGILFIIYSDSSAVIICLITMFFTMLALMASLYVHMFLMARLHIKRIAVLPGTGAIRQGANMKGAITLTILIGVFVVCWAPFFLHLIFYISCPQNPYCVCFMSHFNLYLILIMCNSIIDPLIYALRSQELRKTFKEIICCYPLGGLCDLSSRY
Summary of the method: as §1

Mouse urotensin (mUR2) = biological target: T4, Mouse urotensin (mUR2) (Mus musculus, UniProt Q8VIH9); test: Radioligand binding, mouse urotensin mUR2 membranes, FlashPlate, [125I]-Urotensin II; conditions: compound at 10 μM; for A11: inhibition of radioligand binding: FlashPlate
T4 construct: purchased Perkin Elmer Biosignal
T4 sequence (Q8VIH9 1-385): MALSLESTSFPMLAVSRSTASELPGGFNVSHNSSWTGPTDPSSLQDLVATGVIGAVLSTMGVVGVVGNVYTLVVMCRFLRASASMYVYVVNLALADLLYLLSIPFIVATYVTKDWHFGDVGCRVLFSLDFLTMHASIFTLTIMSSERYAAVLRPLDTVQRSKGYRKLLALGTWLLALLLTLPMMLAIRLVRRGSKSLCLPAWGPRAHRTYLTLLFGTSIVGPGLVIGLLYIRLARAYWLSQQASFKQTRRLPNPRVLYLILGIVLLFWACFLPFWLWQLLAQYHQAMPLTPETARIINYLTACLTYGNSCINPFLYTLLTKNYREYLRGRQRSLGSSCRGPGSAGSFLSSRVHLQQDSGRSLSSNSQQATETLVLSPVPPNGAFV
Summary of the method: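 Cloned mouse urotensin (mUR2) receptor membranes from Perkin Elmer Biosignal were immobilized in FlashPlate microplates using a proprietary coating. Each well got 19.5 μl buffer, then 0.5 μl of DMSO, reference ligand, or compound. Adding 5 μl of [125I]-Urotensin II, diluted to 5× final concentration in binding buffer, started binding. Plates were sealed with TopSeal-A and incubated 1 hour at room temperature in the dark. Wells were counted for 30 seconds each on a TopCount after a 60-second delay, and percentage inhibition was calculated.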

[1] = biological target: T5, Human neuropeptide Y (NPY-Y1) (Homo sapiens, UniProt P25929); test: Radioligand binding, human neuropeptide Y NPY-Y1 membranes, FlashPlate, [125I]-PYY; conditions: compound at 10 μM; for A9: inhibition of radioligand binding: FlashPlate
T5 construct: purchased Perkin Elmer Biosignal
T5 sequence (P25929 1-384): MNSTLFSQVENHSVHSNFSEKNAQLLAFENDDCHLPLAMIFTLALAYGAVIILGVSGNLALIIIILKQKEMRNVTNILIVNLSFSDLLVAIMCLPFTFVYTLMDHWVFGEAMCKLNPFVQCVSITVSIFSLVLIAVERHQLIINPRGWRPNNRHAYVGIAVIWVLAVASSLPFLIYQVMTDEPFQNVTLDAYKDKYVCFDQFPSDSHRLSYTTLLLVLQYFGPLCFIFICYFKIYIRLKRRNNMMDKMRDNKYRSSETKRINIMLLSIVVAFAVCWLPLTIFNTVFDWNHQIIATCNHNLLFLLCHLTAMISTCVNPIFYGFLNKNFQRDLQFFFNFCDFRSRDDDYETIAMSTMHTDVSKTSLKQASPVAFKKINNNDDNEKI
Summary of the method: as §1

[2] = biological target: T6, Human melanin-concentrating hormone (MCH1) (Homo sapiens, UniProt Q99705); test: Radioligand binding, human melanin-concentrating hormone MCH1 membranes, FlashPlate, [125I]-S36057; conditions: compound at 10 μM; for A6: inhibition of radioligand binding: [125I]-S36057, FlashPlate
T6 construct: purchased Perkin Elmer Biosignal
T6 sequence (Q99705 whole entry): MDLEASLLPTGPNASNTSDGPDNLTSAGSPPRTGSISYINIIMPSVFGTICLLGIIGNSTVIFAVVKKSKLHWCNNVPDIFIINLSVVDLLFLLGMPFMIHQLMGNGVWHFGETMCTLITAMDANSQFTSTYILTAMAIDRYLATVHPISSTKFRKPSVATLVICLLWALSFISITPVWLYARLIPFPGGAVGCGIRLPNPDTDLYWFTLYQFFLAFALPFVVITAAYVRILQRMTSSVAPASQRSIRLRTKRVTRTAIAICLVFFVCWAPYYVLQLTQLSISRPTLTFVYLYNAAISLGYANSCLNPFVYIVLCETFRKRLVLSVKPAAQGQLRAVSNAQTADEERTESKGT
Summary of the method: as §1

Human melanocortin (MC5) = biological target: T7, Human melanocortin (MC5) (Homo sapiens, UniProt P33032); test: Radioligand binding, human melanocortin MC5 membranes, FlashPlate, [125I]-NDP-αMSH; conditions: compound at 10 μM; for A5: inhibition of radioligand binding: FlashPlate
T7 construct: purchased Perkin Elmer Biosignal
T7 sequence (P33032 whole entry): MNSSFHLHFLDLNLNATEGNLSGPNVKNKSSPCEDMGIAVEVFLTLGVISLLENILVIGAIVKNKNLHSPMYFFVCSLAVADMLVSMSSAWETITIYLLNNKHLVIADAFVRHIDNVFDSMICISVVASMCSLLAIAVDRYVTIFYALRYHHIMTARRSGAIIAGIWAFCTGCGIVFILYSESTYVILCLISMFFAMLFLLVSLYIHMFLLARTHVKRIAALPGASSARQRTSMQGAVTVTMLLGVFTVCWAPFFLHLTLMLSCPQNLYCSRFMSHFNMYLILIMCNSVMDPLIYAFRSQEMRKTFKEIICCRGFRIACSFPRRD
Summary of the method: as §1

Human neurokinin (NK1) = biological target: T8, Human neurokinin (NK1) (Homo sapiens, UniProt P25103); test: Radioligand binding, human neurokinin NK1 membranes, filtration, [125I]-Substance P; conditions: compound at 10 μM; for A8: inhibition of radioligand binding: filtration
T8 construct: purchased Perkin Elmer Biosignal
T8 sequence (P25103 whole entry): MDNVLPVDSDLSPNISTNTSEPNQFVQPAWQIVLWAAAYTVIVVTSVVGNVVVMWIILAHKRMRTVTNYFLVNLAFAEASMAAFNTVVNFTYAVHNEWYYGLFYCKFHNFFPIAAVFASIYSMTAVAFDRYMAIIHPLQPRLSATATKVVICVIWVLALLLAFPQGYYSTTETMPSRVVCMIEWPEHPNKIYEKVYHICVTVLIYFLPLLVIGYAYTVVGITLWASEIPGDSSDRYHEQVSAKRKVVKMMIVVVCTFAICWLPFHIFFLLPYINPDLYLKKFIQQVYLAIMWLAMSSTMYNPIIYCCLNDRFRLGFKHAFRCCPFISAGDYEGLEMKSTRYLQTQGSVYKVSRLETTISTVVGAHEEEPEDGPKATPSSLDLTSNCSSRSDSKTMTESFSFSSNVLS
Summary of the method: (§2)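 Membranes from cloned human receptors were incubated with compound and radioligand for 1 hour at room temperature. Bound ligand was collected on 0.3% PEI-soaked filters, washed with cold 50 mM Tris-HCl pH 7.4, and counted by scintillation. Percent inhibition was computed against DMSO totals and reference-ligand nonspecific wells.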

Human μ-opioid (MOP) = biological target: T9, Human μ-opioid (MOP) (Homo sapiens, UniProt P35372); test: Radioligand binding, human μ-opioid (MOP) membranes, FlashPlate, [3H]-Naloxone; conditions: compound at 10 μM; for A7: inhibition of radioligand binding: FlashPlate
T9 construct: purchased Perkin Elmer Biosignal
T9 sequence (P35372 whole entry): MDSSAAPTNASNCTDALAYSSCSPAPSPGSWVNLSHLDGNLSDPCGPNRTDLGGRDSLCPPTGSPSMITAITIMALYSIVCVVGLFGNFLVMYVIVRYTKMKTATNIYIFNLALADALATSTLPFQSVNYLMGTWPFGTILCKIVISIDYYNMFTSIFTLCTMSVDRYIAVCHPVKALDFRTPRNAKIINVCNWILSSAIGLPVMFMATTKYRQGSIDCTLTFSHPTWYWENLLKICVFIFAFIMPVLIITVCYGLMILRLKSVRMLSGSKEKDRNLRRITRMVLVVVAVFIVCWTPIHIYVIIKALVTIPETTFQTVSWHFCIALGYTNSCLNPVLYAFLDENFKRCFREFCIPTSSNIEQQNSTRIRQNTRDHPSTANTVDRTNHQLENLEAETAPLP
Summary of the method: as §1

Human κ-Opioid (KOP) = biological target: T10, Human κ-Opioid (KOP) (Homo sapiens, UniProt P41145); test: Radioligand binding, human κ-opioid (KOP) membranes, filtration, [3H]-Diprenorphine; conditions: compound at 10 μM; for A2: inhibition of radioligand binding: filtration
T10 construct: purchased Perkin Elmer Biosignal
T10 sequence (P41145 whole entry): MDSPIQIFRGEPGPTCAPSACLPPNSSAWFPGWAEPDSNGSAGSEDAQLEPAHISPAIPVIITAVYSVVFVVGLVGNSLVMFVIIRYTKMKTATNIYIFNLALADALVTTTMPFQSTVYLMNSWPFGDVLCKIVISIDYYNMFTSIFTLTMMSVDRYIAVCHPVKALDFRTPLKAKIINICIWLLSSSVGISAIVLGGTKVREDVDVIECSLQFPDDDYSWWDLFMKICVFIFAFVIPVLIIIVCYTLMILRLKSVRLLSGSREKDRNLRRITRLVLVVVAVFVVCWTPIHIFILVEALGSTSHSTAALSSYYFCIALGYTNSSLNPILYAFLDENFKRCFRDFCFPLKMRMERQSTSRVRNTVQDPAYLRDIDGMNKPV
Summary of the method: as §2

Human δ-opioid (DOP) = biological target: T11, Human δ-opioid (DOP) (Homo sapiens, UniProt P41143); test: Radioligand binding, human δ-opioid (DOP) membranes, FlashPlate, [3H]-Bremazocine; conditions: compound at 10 μM; for A1: inhibition of radioligand binding: FlashPlate
T11 construct: purchased Perkin Elmer Biosignal
T11 sequence (P41143 whole entry): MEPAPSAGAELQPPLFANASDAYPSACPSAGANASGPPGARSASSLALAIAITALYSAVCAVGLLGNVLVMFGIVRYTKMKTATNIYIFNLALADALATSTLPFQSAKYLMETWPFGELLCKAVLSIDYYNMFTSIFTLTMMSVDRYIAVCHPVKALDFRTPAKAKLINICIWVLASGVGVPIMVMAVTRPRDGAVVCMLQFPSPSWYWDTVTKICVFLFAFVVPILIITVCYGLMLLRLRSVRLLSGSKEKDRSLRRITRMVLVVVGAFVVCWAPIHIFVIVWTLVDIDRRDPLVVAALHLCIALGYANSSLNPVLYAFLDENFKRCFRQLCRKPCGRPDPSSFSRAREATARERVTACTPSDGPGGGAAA
Summary of the method: as §1

T1 sequence (P41146 whole entry): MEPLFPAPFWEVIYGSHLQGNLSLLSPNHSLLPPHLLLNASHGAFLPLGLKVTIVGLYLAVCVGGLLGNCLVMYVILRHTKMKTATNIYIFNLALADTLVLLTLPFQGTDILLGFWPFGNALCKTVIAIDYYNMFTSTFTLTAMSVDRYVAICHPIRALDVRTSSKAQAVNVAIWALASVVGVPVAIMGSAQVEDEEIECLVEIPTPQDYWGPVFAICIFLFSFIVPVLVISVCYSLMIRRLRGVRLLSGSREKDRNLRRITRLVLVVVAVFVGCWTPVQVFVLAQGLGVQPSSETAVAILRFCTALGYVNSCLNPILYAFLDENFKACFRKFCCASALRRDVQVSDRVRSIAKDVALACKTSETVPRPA

COC[C@H]1OC(OCc2cccc(O)c2)[C@H](NC(=O)CCNC(=N)N)[C@@H](OCc2ccc(-c3ccccc3)cc2)[C@@H]1O (stereo partly shown) [compound 142]
A10 radioligand binding, percentage inhibition (Human opioid (ORL1); [125I]-Nociceptin): − (“−” indicates less than 50% inhibition at 10 μM)
A3 radioligand binding, percentage inhibition (Human Melanocortin (MC3); [125I]-NDP-αMSH): − (“−” indicates less than 50% inhibition at 10 μM)
A4 radioligand binding, percentage inhibition (Human Melanocortin (MC4); [125I]-NDP-αMSH): − (“−” indicates less than 50% inhibition at 10 μM)
A11 radioligand binding, percentage inhibition (Mouse urotensin (mUR2); [125I]-Urotensin II): − (“−” indicates less than 50% inhibition at 10 μM)
A9 radioligand binding, percentage inhibition ([1]; [125I]-PYY): − (“−” indicates less than 50% inhibition at 10 μM)
A6 radioligand binding, percentage inhibition ([2]; [125I]-S36057): + (“+” indicates greater than 50% inhibition at 10 μM)
A5 radioligand binding, percentage inhibition (Human melanocortin (MC5); [125I]-NDP-αMSH): − (“−” indicates less than 50% inhibition at 10 μM)
A8 radioligand binding, percentage inhibition (Human neurokinin (NK1); [125I]-Substance P): − (“−” indicates less than 50% inhibition at 10 μM)
A7 radioligand binding, percentage inhibition (Human μ-opioid (MOP); [3H]-Naloxone): − (“−” indicates less than 50% inhibition at 10 μM)
A2 radioligand binding, percentage inhibition (Human κ-Opioid (KOP); [3H]-Diprenorphine): − (“−” indicates less than 50% inhibition at 10 μM)
A1 radioligand binding, percentage inhibition (Human δ-opioid (DOP); [3H]-Bremazocine): − (“−” indicates less than 50% inhibition at 10 μM)

CSC1OC(COCc2cccc(N)c2)C(O)C(OCc2ccc(Cl)cc2)C1NC(=O)Cc1ccccc1 (stereo not shown) [compound 333]
A10: inhibition of radioligand binding, human opioid (ORL1) (Human opioid (ORL1); [125I]-Nociceptin): − (“−” indicates less than 50% inhibition at 10 μM)
A3: inhibition of radioligand binding, human melanocortin (MC3) (Human Melanocortin (MC3); [125I]-NDP-αMSH): − (“−” indicates less than 50% inhibition at 10 μM)
A4: inhibition of radioligand binding, human melanocortin (MC4) (Human Melanocortin (MC4); [125I]-NDP-αMSH): − (“−” indicates less than 50% inhibition at 10 μM)
A11: inhibition of radioligand binding, mouse urotensin (mUR2) (Mouse urotensin (mUR2); [125I]-Urotensin II): − (“−” indicates less than 50% inhibition at 10 μM)
A9: inhibition of radioligand binding, human neuropeptide Y (NPY-Y1) ([1]; [125I]-PYY): − (“−” indicates less than 50% inhibition at 10 μM)
A6: inhibition of radioligand binding, human melanin-concentrating hormone (MCH1) ([2]; [125I]-S36057): − (“−” indicates less than 50% inhibition at 10 μM)
A5: inhibition of radioligand binding, human melanocortin (MC5) (Human melanocortin (MC5); [125I]-NDP-αMSH): − (“−” indicates less than 50% inhibition at 10 μM)
A8: inhibition of radioligand binding, human neurokinin (NK1) (Human neurokinin (NK1); [125I]-Substance P): + (“+” indicates greater than 50% inhibition at 10 μM)
A7: inhibition of radioligand binding, human μ-opioid (MOP) (Human μ-opioid (MOP); [3H]-Naloxone): − (“−” indicates less than 50% inhibition at 10 μM)
A2: inhibition of radioligand binding, human κ-opioid (KOP) (Human κ-Opioid (KOP); [3H]-Diprenorphine): − (“−” indicates less than 50% inhibition at 10 μM)
A1: inhibition of radioligand binding, human δ-opioid (DOP) (Human δ-opioid (DOP); [3H]-Bremazocine): − (“−” indicates less than 50% inhibition at 10 μM)

COC[C@H]1OC(OCCc2ccccc2)[C@H](NC(=O)CNC(=N)N)[C@@H](OCc2ccc3ccccc3c2)[C@@H]1O (stereo partly shown) [compound 44]
A10 radioligand binding inhibition (Human opioid (ORL1); human ORL1 membranes): − (“−” indicates less than 50% inhibition at 10 μM)
A3 radioligand binding inhibition (Human Melanocortin (MC3); human melanocortin MC3 membranes): − (“−” indicates less than 50% inhibition at 10 μM)
A4 radioligand binding inhibition (Human Melanocortin (MC4); human melanocortin MC4 membranes): + (“+” indicates greater than 50% inhibition at 10 μM)
A11 radioligand binding inhibition (Mouse urotensin (mUR2); mouse urotensin mUR2 membranes): − (“−” indicates less than 50% inhibition at 10 μM)
A9 radioligand binding inhibition ([1]; human NPY-Y1 membranes): − (“−” indicates less than 50% inhibition at 10 μM)
A6 radioligand binding inhibition ([2]; human MCH1 membranes): − (“−” indicates less than 50% inhibition at 10 μM)
A5 radioligand binding inhibition (Human melanocortin (MC5); human melanocortin MC5 membranes): + (“+” indicates greater than 50% inhibition at 10 μM)
A8 radioligand binding inhibition (Human neurokinin (NK1); human neurokinin NK1 membranes): − (“−” indicates less than 50% inhibition at 10 μM)
A7 radioligand binding inhibition (Human μ-opioid (MOP); human μ-opioid (MOP) membranes): − (“−” indicates less than 50% inhibition at 10 μM)
A2 radioligand binding inhibition (Human κ-Opioid (KOP); human κ-opioid (KOP) membranes): − (“−” indicates less than 50% inhibition at 10 μM)
A1 radioligand binding inhibition (Human δ-opioid (DOP); human δ-opioid (DOP) membranes): − (“−” indicates less than 50% inhibition at 10 μM)

COCC1OC(OCCc2ccccc2)C(NC(=O)CNC(=N)N)C(OCc2ccc3ccccc3c2)C1O (stereo not shown) [compound 226]
A10: inhibition of radioligand binding (Human opioid (ORL1); [125I]-Nociceptin): − (“−” indicates less than 50% inhibition at 10 μM)
A3: inhibition of radioligand binding (Human Melanocortin (MC3); [125I]-NDP-αMSH): + (“+” indicates greater than 50% inhibition at 10 μM)
A4: inhibition of radioligand binding (Human Melanocortin (MC4); [125I]-NDP-αMSH): + (“+” indicates greater than 50% inhibition at 10 μM)
A11: inhibition of radioligand binding (Mouse urotensin (mUR2); [125I]-Urotensin II): − (“−” indicates less than 50% inhibition at 10 μM)
A9: inhibition of radioligand binding ([1]; [125I]-PYY): − (“−” indicates less than 50% inhibition at 10 μM)
A6: inhibition of radioligand binding [2]: − (“−” indicates less than 50% inhibition at 10 μM)
A5: inhibition of radioligand binding (Human melanocortin (MC5); [125I]-NDP-αMSH): + (“+” indicates greater than 50% inhibition at 10 μM)
A8: inhibition of radioligand binding (Human neurokinin (NK1); [125I]-Substance P): + (“+” indicates greater than 50% inhibition at 10 μM)
A7: inhibition of radioligand binding (Human μ-opioid (MOP); [3H]-Naloxone): − (“−” indicates less than 50% inhibition at 10 μM)
A2: inhibition of radioligand binding (Human κ-Opioid (KOP); [3H]-Diprenorphine): − (“−” indicates less than 50% inhibition at 10 μM)
A1: inhibition of radioligand binding (Human δ-opioid (DOP); [3H]-Bremazocine): − (“−” indicates less than 50% inhibition at 10 μM)

COCC1OC(OCc2ccc3ccccc3c2)C(NC(=O)CCCNC(=N)N)C(OCc2ccc(Cl)cc2)C1O (stereo not shown) [compound 240]
A10: inhibition of radioligand binding (Human opioid (ORL1); [125I]-Nociceptin): + (“+” indicates greater than 50% inhibition at 10 μM)
A3: inhibition of radioligand binding (Human Melanocortin (MC3); [125I]-NDP-αMSH): + (“+” indicates greater than 50% inhibition at 10 μM)
A4: inhibition of radioligand binding (Human Melanocortin (MC4); [125I]-NDP-αMSH): + (“+” indicates greater than 50% inhibition at 10 μM)
A11: inhibition of radioligand binding (Mouse urotensin (mUR2); [125I]-Urotensin II): − (“−” indicates less than 50% inhibition at 10 μM)
A9: inhibition of radioligand binding ([1]; [125I]-PYY): − (“−” indicates less than 50% inhibition at 10 μM)
A6: inhibition of radioligand binding [2]: + (“+” indicates greater than 50% inhibition at 10 μM)
A5: inhibition of radioligand binding (Human melanocortin (MC5); [125I]-NDP-αMSH): + (“+” indicates greater than 50% inhibition at 10 μM)
A8: inhibition of radioligand binding (Human neurokinin (NK1); [125I]-Substance P): + (“+” indicates greater than 50% inhibition at 10 μM)
A7: inhibition of radioligand binding (Human μ-opioid (MOP); [3H]-Naloxone): + (“+” indicates greater than 50% inhibition at 10 μM)
A2: inhibition of radioligand binding (Human κ-Opioid (KOP); [3H]-Diprenorphine): + (“+” indicates greater than 50% inhibition at 10 μM)
A1: inhibition of radioligand binding (Human δ-opioid (DOP); [3H]-Bremazocine): − (“−” indicates less than 50% inhibition at 10 μM)
